Broadly, the IC50 is the concentration that gives 50% inhibition.

The record followed here is publication PMC3527126 (Endocrine-related cancer, 2011).

In the assay the target is PKCδ (Homo sapiens, UniProt Q05655). Nature of the assay: Omnia fluorescent. It counts as biochemical.
PKCδ, sequence (Q05655 whole entry): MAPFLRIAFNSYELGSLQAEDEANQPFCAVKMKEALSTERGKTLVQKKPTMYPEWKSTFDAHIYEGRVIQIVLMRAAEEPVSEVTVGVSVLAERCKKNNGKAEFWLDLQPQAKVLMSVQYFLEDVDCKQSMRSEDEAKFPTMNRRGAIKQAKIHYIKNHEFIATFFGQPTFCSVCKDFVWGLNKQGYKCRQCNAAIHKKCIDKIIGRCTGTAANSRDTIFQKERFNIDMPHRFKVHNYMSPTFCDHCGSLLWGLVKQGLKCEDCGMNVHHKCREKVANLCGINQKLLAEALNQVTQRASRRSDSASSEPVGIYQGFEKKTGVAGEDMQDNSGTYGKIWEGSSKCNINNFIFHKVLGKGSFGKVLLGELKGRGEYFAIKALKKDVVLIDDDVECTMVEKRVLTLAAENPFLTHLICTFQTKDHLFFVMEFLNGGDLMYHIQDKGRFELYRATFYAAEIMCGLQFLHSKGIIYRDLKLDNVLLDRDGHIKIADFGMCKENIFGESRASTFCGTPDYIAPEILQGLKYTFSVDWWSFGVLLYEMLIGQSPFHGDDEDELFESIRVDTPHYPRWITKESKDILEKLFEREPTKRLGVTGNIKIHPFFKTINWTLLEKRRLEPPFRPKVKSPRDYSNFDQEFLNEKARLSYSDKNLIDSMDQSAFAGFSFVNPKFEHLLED

In the case of `CC(=O)c1c(O)c(C)c(O)c(Cc2c(O)c3c(c(C(=O)/C=C/c4ccccc4)c2O)OC(C)(C)C=C3)c1O` [rottlerin], the IC50 was found to be 200 nM.
